Tests used:
U937 cells = assay: Inhibition of TNF-α-induced necroptosis of U937 cells (CCK-8 assay); format: cell-based, human; conditions: Homo sapiens, U-937, TNF-α 20 ng/mL + BV6 2 µM + Z-VAD-FMK 20 µM, 18 h
Text: Example 56: Inhibition of TNF-α-Induced Necroptosis of U937 Cells by Compounds
• 1. Experimental reagents: RPMI-1640 culture medium, fetal bovine serum, penicillin-streptomycin, TNF-α (MCE, HY-P7058), BV6 (MCE, HY-16701), Z-VAD-FMK (MCE, HY-16658B), and CCK-8 (Dalian Meilun Biotech Co., Ltd., MA0218). • 2. Experimental instruments: medical low-temperature freezer (Thermo Fisher scientific, 902-ULTS), electrically heated thermostatic water bath (Shanghai Bluepard Instruments Co., Ltd., CD-420), low-speed centrifuge (ANHUI USTC Zonkia Scientific Instruments Co., Ltd, SC-3616), carbon dioxide incubator (Shanghai Bluepard Instruments Co., Ltd., BPN-150CH(UV)), inverted microscope (Olympus, CKX53), multi-functional microplate reader (Thermo Tecan, SPARK), class-II biosafety cabinet (AIRTECH, BSC-1304IIA2), and desktop cell counter (Thermo Fisher Scientific, Countess II). • 3. Cell culturing: U937 cells (human histiocytic lymphoma cells) were cultured in an RPMI-1640 culture solution containing 10% fetal bovine serum and 1% penicillin-streptomycin solution in a 5% CO2 incubator at 37 °C and a saturated humidity. The cell culture flask was vertically placed in the incubator. A T25 culture flask was used as an example, the culture solution in the flask was 6-8 mL, and culture medium changes and cell passaging were performed 3-4 times a week. • 4. […] The culture medium was taken out from the freezer and transferred to the water bath for pre-heating. An appropriate amount of culture medium was then taken for use. • (2) The cell suspension was transferred to a 15 mL sterile centrifuge tube and centrifuged at 850 rpm for 4 min to collect U937 cells. • (3) The supernatant was carefully discarded, and an appropriate amount of culture medium was added. The mixture was gently pipetted using a pipette to homogenize the cells and thus prepare a single-cell suspension, and the cells were counted. • (4) The cells were diluted to 4 × 10^5/mL and seeded into a 96-well plate at 90 µL/well, such that the cell density in the 96-well plate was 3.6 × 10 ^4 cells/well. The cells were incubated in a 5% CO 2 incubator at 37 °C and a saturated humidity for 6 h, followed by the addition of compounds. • 4.2 Dilution and addition of compounds: • (1) TNF-α was dissolved in PBS to obtain a 100 µg/mL stock solution and aliquoted; Z-VAD-FMK was dissolved in DMSO to obtain a 10 mM stock solution and aliquoted; BV6 was dissolved in DMSO to obtain a 10 mM stock solution and aliquoted; GSK2982772 was dissolved in DMSO to obtain a 10 mM stock solution and aliquoted. One aliquot of each stock solution was stored at -20 °C for immediate use, while the remaining aliquots were stored at - 80 °C and used within their shelf life. • (2) RPMI-1640 culture medium containing TNF-α, BV6, and Z-VAD-FMK was prepared (5 µL/per well), such that the final concentrations of TNF-α, BV6, and Z-VAD-FMK were 20 ng/mL, 2 µM, and 20 µM, respectively. • (3) Each target compound was three-fold diluted with a culture medium to 8 concentration gradients, with each concentration set in duplicate (5 µL/well). The final concentrations of each target compound were 1000.00/333.33/111.11/37.04/12.35/4.12/1.37/0.46 nM. • (4) The 96-well plate containing 90 µL of cell suspension was taken out from an incubator, and a positive control group, test compound groups, and a DMSO (5‰) control group were set. 5 µL of RPMI-1640 culture solution containing TNF-α, BV6, and Z-VAD-FMK and 5 µL of culture solution containing the test compound were added to the positive control group and the test compound groups. After compound addition, the mixtures were cultured for 18 h, followed by the CCK-8 assay. • (5) The 96-well plate was taken out, and the CCK-8 reagent was carefully added at 10 µL/well. The mixtures were incubated at 37 °C for 2-4 h, and the absorbance value was measured at a wavelength of 450 nm. • 5. Evaluation of inhibitory activity of compounds on TNF-α-induced necroptosis of U937 [formula] […]

HT-29 cells = assay: Inhibition of TNF-α-induced necroptosis of HT-29 cells (SRB method); format: cell-based, human; conditions: Homo sapiens, HT-29, TNF-α 20 ng/mL + BV6 2 µM + Z-VAD-FMK 20 µM, 18 h
Text: Example 57: Inhibition of TNF-α-Induced Necroptosis of HT-29 Cells by Compounds
• 1. Experimental reagents: McCOY's 5A culture medium, fetal bovine serum, penicillin-streptomycin, trypsin, PBS, TNF-α (MCE, HY-P7058), BV6 (MCE, HY-16701), Z-VAD-FMK (MCE, HY-16658B), SRB kit (Shanghai BestBio Biotechnology Co., Ltd., BB-4208-500T). • 2. Experimental instruments: medical low-temperature freezer (Thermo Fisher scientific, 902-ULTS), electrically heated thermostatic water bath (Shanghai Bluepard Instruments Co., Ltd., CD-420), low-speed centrifuge (ANHUI USTC Zonkia Scientific Instruments Co., Ltd, SC-3616), carbon dioxide incubator (Shanghai Bluepard Instruments Co., Ltd., BPN-150CH(UV)), inverted microscope (Olympus, CKX53), multi-functional microplate reader (Thermo Tecan, SPARK), class-II biosafety cabinet (AIRTECH, BSC-1304IIA2), and desktop cell counter (Thermo Fisher Scientific, Countess II). • 3. Cell culturing: HT-29 cells (human colon cancer cells) were cultured in a McCOY's 5A culture solution containing 10% fetal bovine serum and 1% penicillin-streptomycin solution in a 5% CO 2 at 37 °C and a saturated humidity, and culture medium changes and cell passaging were performed 3-4 times a week. • 4. […] The culture medium, trypsin, etc., were taken out from the freezer and transferred to the water bath for pre-heating. An appropriate amount of these substances was then taken for use. • (2) The old culture medium in the flask was aspirated using a sterile pipette and discarded, and the cells were washed 3 times with PBS. 1 mL of trypsin (25 cm^2 cell culture flask) was added into the flask, and the flask was gently shaken to allow the trypsin to cover all the cell surfaces. Digestion was performed in an incubator at 37 °C. After 2 min of digestion, the flask was placed under a microscope for observation. […] The mixture was gently pipetted using a pipette to homogenize the cells and thus prepare a single-cell suspension, and the cells were counted. • (5) The cells were diluted to 3 × 10^5/mL and seeded into a 96-well plate at 100 µL/well, such that there were 3 × 10^4 cells per well in the 96-well plate. The cells were incubated in a 5% CO2 incubator at 37 °C and a saturated humidity for 24 h, followed by the addition of compounds. • 4.2 Dilution and addition of compounds: • (1) TNF-α was dissolved in PBS to obtain a 100 µg/mL stock solution and aliquoted; Z-VAD-FMK was dissolved in DMSO to obtain a 10 mM stock solution and aliquoted; BV6 was dissolved in DMSO to obtain a 10 mM stock solution and aliquoted; GSK2982772 was dissolved in DMSO to obtain a 10 mM stock solution and aliquoted. One aliquot of each stock solution was stored at -20 °C for immediate use, while the remaining aliquots were stored at - 80 °C and used within their shelf life. • (2) McCOY's 5A culture solution containing TNF-α, BV6, and Z-VAD-FMK was prepared. For the positive control group and the test compound groups, the McCOY's 5A culture solution was added at 90 µL/well, and 10 µL of the culture medium containing the test compound was also added, thus making the final concentrations of TNF-α, BV6, and Z-VAD-FMK be 20 ng/mL, 2 µM, and 20 µM, respectively. For the DMSO (5‰) control group, 90 µL of the McCOY's 5A complete culture solution was added, and then 10 µL of DMSO was added, thus making the final concentration 5‰. • (3) Each target compound was three-fold diluted with a culture medium to 8 concentration gradients, with each concentration set in duplicate (10 µL/well). The final concentrations of each target compound were 1000.00/333.33/111.11/37.04/12.35/4.12/1.37/0.46 nM. • (4) The 96-well plate cultured for 24 h was taken out from the incubator, and the culture medium in the 96-well plate was carefully aspirated and discarded. A positive control group, test compound groups, and a DMSO (5‰) control group were set, and 10 µL of the corresponding compound was added to each group. […]

Compound | EC50 (U937 cells) | EC50 (HT-29 cells)
Cn1cc(C#Cc2cc3c4c(c2)CCN4C(=O)C(NC(=O)c2ncn(Cc4ccccc4F)n2)CC3)cn1 (stereo not shown) [III-7, 1-(2-fluorobenzyl)-N-(9-((1-methyl-1H-pyrazol-4-yl)ethynyl)-4-oxo-1,2,3,4,6,7-hexahydroazepino[3,2,1-hi]indol-3-yl)-1H-1,2,4-triazole-3-carboxamide] | < 5 nM | 10 to 100 nM
Cn1cc(C#Cc2cc3c4c(c2)CCN4C(=O)C(NC(=O)c2ncn(Cc4ccc(F)cc4)n2)CC3)cn1 (stereo not shown) [III-8, 1-(4-fluorobenzyl)-N-(9-((1-methyl-1H-pyrazol-4-yl)ethynyl)-4-oxo-1,2,3,4,6,7-hexahydroazepino[3,2,1-hi]indol-3-yl)-1H-1,2,4-triazole-3-carboxamide] | 5 to 10 nM | 10 to 100 nM
Cn1cc(C#Cc2cc3c4c(c2)CCN4C(=O)C(NC(=O)c2ncn(Cc4ccc(F)cc4F)n2)CC3)cn1 (stereo not shown) [III-9, 1-(2,4-difluorobenzyl)-N-(9-((1-methyl-1H-pyrazol-4-yl)ethynyl)-4-oxo-1,2,3,4,6,7-hexahydroazepino[3,2,1-hi]indol-3-yl)-1H-1,2,4-triazole-3-carboxamide] | < 5 nM | < 5 nM
Cn1cc(C#Cc2cc3c4c(c2)CCN4C(=O)C(NC(=O)c2ncn(Cc4cc(F)cc(F)c4)n2)CC3)cn1 (stereo not shown) [III-11, 1-(3,5-difluorobenzyl)-N-(9-((1-methyl-1H-pyrazol-4-yl)ethynyl)-4-oxo-1,2,3,4,6,7-hexahydroazepino[3,2,1-hi]indol-3-yl)-1H-1,2,4-triazole-3-carboxamide] | < 5 nM | < 5 nM
Cc1ccccc1Cn1cnc(C(=O)NC2CCc3cc(C#Cc4cnn(C)c4)cc4c3N(CC4)C2=O)n1 (stereo not shown) [III-13, N-(9-((1-methyl-1H-pyrazol-4-yl)ethynyl)-4-oxo-1,2,3,4,6,7-hexahydroazepino[3,2,1-hi]indol-3-yl)-1-(2-methylbenzyl)-1H-1,2,4-triazole-3-carboxamide] | < 5 nM | 5 to 10 nM
Cc1ccc(Cn2cnc(C(=O)NC3CCc4cc(C#Cc5cnn(C)c5)cc5c4N(CC5)C3=O)n2)cc1 (stereo not shown) [III-14, N-(9-((1-methyl-1H-pyrazol-4-yl)ethynyl)-4-oxo-1,2,3,4,6,7-hexahydroazepino[3,2,1-hi]indol-3-yl)-1-(4-methylbenzyl)-1H-1,2,4-triazole-3-carboxamide] | < 5 nM | 5 to 10 nM
O=C(NC1CCc2cc(C#CC3CCNCC3)cc3c2N(CC3)C1=O)c1ncn(Cc2c(F)cccc2F)n1 (stereo not shown) [III-15, 1-(2,6-difluorobenzyl)-N-(4-oxo-9-(piperidin-4-ylethynyl)-1,2,3,4,6,7-hexahydroazepino[3,2,1-hi]indol-3-yl)-1H-1,2,4-triazole-3-carboxamide] | < 5 nM | < 5 nM
CC(C)(C)OC(=O)N1CCC(C#Cc2cc3c4c(c2)CCN4C(=O)C(NC(=O)c2ncn(Cc4c(F)cccc4F)n2)CC3)CC1 (stereo not shown) [III-16, tert-butyl 4-((3-(1-(2,6-difluorobenzyl)-1H-1,2,4-triazole-3-carboxamido)-4-oxo-1,2,3,4,6,7-hexahydroazepino[3,2,1-hi]indol-9-yl)ethynyl)piperidine-1-carboxylate] | < 5 nM | 10 to 100 nM
O=C(NC1CCc2cc(C#Cc3cnn(C(F)F)c3)cc3c2N(CC3)C1=O)c1ncn(Cc2cc(F)cc(F)c2)n1 (stereo not shown) [III-18, 1-(3,5-difluorobenzyl)-N-(9-((1-(difluoromethyl)-1H-pyrazol-4-yl)ethynyl)-4-oxo-1,2,3,4,6,7-hexahydroazepino[3,2,1-hi]indol-3-yl)-1H-1,2,4-triazole-3-carboxamide] | 10 to 100 nM | 5 to 10 nM
O=C(NC1CCc2cc(C#Cc3cnn(C(F)F)c3)cc3c2N(CC3)C1=O)c1ncn(Cc2ccc(F)cc2F)n1 (stereo not shown) [III-20, 1-(2,4-difluorobenzyl)-N-(9-((1-(difluoromethyl)-1H-pyrazol-4-yl)ethynyl)-4-oxo-1,2,3,4,6,7-hexahydroazepino[3,2,1-hi]indol-3-yl)-1H-1,2,4-triazole-3-carboxamide] | 5 to 10 nM | 5 to 10 nM
Cc1ccccc1Cn1cnc(C(=O)NC2CCc3cc(C#Cc4cnn(C(F)F)c4)cc4c3N(CC4)C2=O)n1 (stereo not shown) [III-22, N-(9-((1-(difluoromethyl)-1H-pyrazol-4-yl)ethynyl)-4-oxo-1,2,3,4,6,7-hexahydroazepino[3,2,1-hi]indol-3-yl)-1-(2-methylbenzyl)-1H-1,2,4-triazole-3-carboxamide] | 10 to 100 nM | 5 to 10 nM

From EP4772510A2, “BENZAZEPINONE COMPOUND AND USE THEREOF” (HANGZHOU BIO-SINCERITY PHARMA-TECHCO., LTD., priority 2023, dated 2025)
